Format in all cases: cell-based
Data set [1] deals with Mycobacterium tuberculosis H37Rv. The data set is described as follows: Microplate Alamar Blue assay (MABA) MIC, M. tuberculosis. The following applies: read-out: MIC Mycobacterium tuberculosis H37Rv. From the text: (§1) Minimal inhibitory concentrations (MICs) in Mycobacterium tuberculosis H37Rv and Mycobacterium avium ATCC 25291 were quantified using microplate Alamar Blue assays as described (MABA; [Collins, L. & Franzblau, S. (1997) Microplate Alamar Blue assay versus BACTEC 460 system for high-throughput screening of compounds against Mycobacterium tuberculosis and Mycobacterium avium. Antimicrob. Agents Chemother. 41, 1004-1009]).
(Resazurin is reduced to fluorescent resorufin, in cell work by metabolically active cells.)

Data set [2] has as its system Vero E6 ATCC CRL1586 cells. The data set is described as follows: Mammalian-cell cytotoxicity, minimal cytotoxic concentration (CellTiter96). The protocol:
Minimal cytotoxic concentrations (MCCs) against mammalian cells in culture were determined using Vero E6 ATCC CRL1586 cells and the CellTiter96 assay kit (Promega, Inc.). […]

Data set [3] deals with Mycobacterium smegmatis ATCC 19420. The data set is described as follows: Broth microdilution MIC, M. smegmatis. The following applies: Mycolicibacterium smegmatis, ATCC19420, M. smegmatis ATCC 19420; read-out: MIC Mycobacterium smegmatis ATCC 19420. From the text:
MICs in Mycobacterium smegmatis ATCC 19420 and Mycobacterium smegmatis ATCC 19420 derivatives were quantified using broth microdilution assays as described [Clinical and Laboratory Standards Institute (CLSI/NCCLS) (2009) Methods for Dilution Antimicrobial Susceptibility Tests for Bacteria That Grow Aerobically; Approved Standard, Eighth Edition. CLIS Document M07-A8 (CLIS, Wayne Pa.)].
On the technique in general: Broth dilution looks for growth in wells or tubes with falling amounts of substance.

Data set [4] concerns Mycobacterium avium ATCC 25291. Description: Microplate Alamar Blue assay (MABA) MIC, M. avium. The following applies: ATCC25291, M. avium ATCC 25291.
Source text: as §1

This note sets out measurements from patent US9919998B2, “Antibacterial agents: Nα-aroyl-N-aryl-phenylalaninamides” (priority 2014, dated 2018).

Usually MIC stands for the lowest concentration that inhibits growth of the organism.

Each structure is given as a SMILES string. Converted amounts (≈) assume the structure as drawn. Bounds are passed on as bounds.

On to `COc1cccc(NC(=O)C(Cc2ccccc2)NC(=O)c2ccccc2)c1C` (stereo not drawn) [I-18], for which the minimal inhibitory concentration (MIC) is more than 50 µg/mL in data set [1], 0.78 µg/mL (≈ 2.01 µM) in data set [3] and more than 50 µg/mL in data set [4]. In data set [2], the “MCC mammalian cells Vero E6 ATCC CRL1586” value is more than 100 µg/mL.
In the case of `CCOc1cccc(C(=O)NC(Cc2ccccc2)C(=O)Nc2ccccc2C)c1` (stereo not drawn) [I-37], the MIC is more than 50 µg/mL in data set [1] and 25 µg/mL (≈ 62.1 µM) in data set [3]. Also, the “MCC mammalian cells Vero E6 ATCC CRL1586” value in data set [2] turned out to be 5 µg/mL.
On to `CC(C)Oc1ccccc1NC(=O)C(Cc1ccccc1)NC(=O)c1ccccc1` (stereo not drawn) [I-50], for which the MIC in data set [1] was 12.5 µg/mL (≈ 31.1 µM); in data set [3], 0.78 µg/mL (≈ 1.94 µM); in data set [4], more than 50 µg/mL. For the same molecule, in data set [2], the “MCC mammalian cells Vero E6 ATCC CRL1586” value was more than 100 µg/mL.
On the same counts, the results for `Cc1c(NC(=O)C(Cc2ccccc2)NC(=O)c2ccccc2)cccc1OC(C)C` (stereo not drawn) [I-51] are more than 50 µg/mL, 1.56 µg/mL (≈ 3.75 µM), more than 50 µg/mL and more than 100 µg/mL.
On the same counts, the results for `O=C(NC(Cc1ccccc1)C(=O)Nc1ccccc1OC(F)F)c1ccccc1` (stereo not drawn) [I-61, N-(1-((2-(difluoromethoxy)phenyl)amino)-1-oxo-3-phenylpropan-2-yl)benzamide] are 6.25 µg/mL (≈ 15.2 µM), 0.39 µg/mL (≈ 0.95 µM), 6.25 µg/mL (≈ 15.2 µM) and more than 100 µg/mL.
`Cc1ccccc1NC(=O)C(Cc1ccccc1)NC(=O)c1cccc(OC(F)F)c1` (stereo not drawn) [I-70]: the minimal inhibitory concentration (MIC) is 6.25 µg/mL (≈ 14.7 µM) in data set [1], 50 µg/mL (≈ 118 µM) in data set [3] and more than 50 µg/mL in data set [4]. Besides, the “MCC mammalian cells Vero E6 ATCC CRL1586” value in data set [2] turned out to be 90 µg/mL.
For the molecule `Cc1c(F)cccc1NC(=O)C(Cc1ccccc1)NC(=O)c1ccccc1` (stereo not drawn) [I-73], the minimal inhibitory concentration (MIC) is more than 50 µg/mL in data set [1], 0.78 µg/mL (≈ 2.07 µM) in data set [3] and more than 50 µg/mL in data set [4]. Moreover, the “MCC mammalian cells Vero E6 ATCC CRL1586” value in data set [2] turned out to be 19 µg/mL.
For `Cc1cccc(NC(=O)C(Cc2ccccc2)NC(=O)c2ccccc2)c1C` (stereo not drawn) [I-105], the MIC in data set [1] worked out at 3.12 µg/mL (≈ 8.39 µM); in data set [3], 0.39 µg/mL (≈ 1.05 µM); in data set [4], 12.5 µg/mL (≈ 33.6 µM). Further, in data set [2], the “MCC mammalian cells Vero E6 ATCC CRL1586” value came out at 21 µg/mL.
Regarding `Cc1cccc(C(=O)NC(Cc2ccccc2)C(=O)Nc2ccccc2C)c1` (stereo not drawn) [I-113], the MIC in data set [1] is more than 50 µg/mL; in data set [3] it was 1.56 µg/mL (≈ 4.19 µM). For the same molecule, in data set [2], the “MCC mammalian cells Vero E6 ATCC CRL1586” value was more than 100 µg/mL.
With `CCc1cccc(NC(=O)C(Cc2ccccc2)NC(=O)c2ccccc2)c1C` (stereo not drawn) [I-116], the results for the MIC in data set [1], in data set [3] and in data set [4] were 6.25 µg/mL (≈ 16.2 µM), 0.78 µg/mL (≈ 2.02 µM) and 6.25 µg/mL (≈ 16.2 µM), respectively. For the same molecule, the “MCC mammalian cells Vero E6 ATCC CRL1586” value in data set [2] worked out at 90 µg/mL.
On to `CCc1cccc(C(=O)NC(Cc2ccccc2)C(=O)Nc2ccccc2C)c1` (stereo not drawn) [I-124], for which the minimum inhibitory concentration (MIC) in data set [1] is more than 50 µg/mL; in data set [3], 25 µg/mL (≈ 64.7 µM). Besides, in data set [2], the “MCC mammalian cells Vero E6 ATCC CRL1586” value was more than 39 µg/mL.
For `Cc1ccccc1NC(=O)C(Cc1ccc(N2CCOCC2)cc1)NC(=O)c1ccccc1` (stereo not drawn) [I-188], in that order: 25 µg/mL (≈ 56.4 µM), 6.25 µg/mL (≈ 14.1 µM) and 35 µg/mL.
Consider `Cc1c(NC(=O)C(Cc2ccccc2)NC(=O)c2ccccc2)cccc1-n1cncn1` (stereo not drawn) [I-204], for which the MIC in data set [1] worked out at 25 µg/mL (≈ 58.8 µM); in data set [3] it was 3.12 µg/mL (≈ 7.34 µM). Further, in data set [2], the “MCC mammalian cells Vero E6 ATCC CRL1586” value was more than 100 µg/mL.
On to `O=C(NC(Cc1ccccc1)C(=O)Nc1ccccc1-n1ccnn1)c1ccccc1` (stereo not drawn) [I-214], for which the MIC in data set [1] was more than 50 µg/mL; in data set [3], 3.12 µg/mL (≈ 7.59 µM). In data set [2], the “MCC mammalian cells Vero E6 ATCC CRL1586” value is more than 100 µg/mL.
On the same counts, the results for `Cc1c(NC(=O)C(Cc2ccccc2)NC(=O)c2ccccc2)cccc1-n1ccnn1` (stereo not drawn) [I-215] are more than 50 µg/mL, 3.12 µg/mL (≈ 7.34 µM) and more than 100 µg/mL.
In the case of `O=C(NC(Cc1ccccc1)C(=O)Nc1ccccc1-n1cnnn1)c1ccccc1` (stereo not drawn) [I-225], the results for the MIC in data set [1] and in data set [3] were more than 50 µg/mL and 6.25 µg/mL (≈ 15.2 µM), respectively. In data set [2], the “MCC mammalian cells Vero E6 ATCC CRL1586” value was more than 100 µg/mL.
For `Cc1c(NC(=O)C(Cc2ccccc2)NC(=O)c2ccccc2)cccc1-n1cnnn1` (stereo not drawn) [I-226], in that order: more than 50 µg/mL, 0.78 µg/mL (≈ 1.83 µM) and more than 100 µg/mL.
On the same counts, the results for `O=C(NC(Cc1ccc(O)cc1)C(=O)Nc1cccc2cnccc12)c1ccccc1` (stereo not drawn) [IX-19, N-(3-(4-hydroxyphenyl)-1-(isoquinolin-5-ylamino)-1-oxopropan-2-yl)benzamide] are 6.25 µg/mL (≈ 15.2 µM), 0.39 µg/mL (≈ 0.948 µM) and 42 µg/mL.
In the case of `Cc1ccccc1NC(=O)C(Cc1ccc(O)c(O)c1)NC(=O)c1ccccc1` (stereo not drawn) [IX-25, N-(3-(3,4-dihydroxyphenyl)-1-oxo-1-(o-tolylamino)propan-2-yl)benzamide], the “MCC mammalian cells Vero E6 ATCC CRL1586” value in data set [2] worked out at 21 µg/mL. Besides, in data set [3], the MIC was 1.56 µg/mL (≈ 4 µM).
Regarding `O=C(NC(Cc1ccccc1)C(=O)Nc1cccc2ncccc12)c1ccccc1F` (stereo not drawn) [IX-58, 2-fluoro-N-(1-oxo-3-phenyl-1-(quinolin-5-ylamino)propan-2-yl)benzamide], the “MCC mammalian cells Vero E6 ATCC CRL1586” value in data set [2] was determined as 78 µg/mL. The MIC in data set [3] was 1.56 µg/mL (≈ 3.77 µM).
For the molecule `Cc1ccccc1NC(=O)C(Cc1ccc(O)cc1)NC(=O)c1ccccc1C` (stereo not drawn) [IX-66, N-(3-(4-hydroxyphenyl)-1-oxo-1-(o-tolylamino)propan-2-yl)-2-methylbenzamide], the MIC in data set [1] stood at 50 µg/mL (≈ 129 µM); in data set [3], 1.56 µg/mL (≈ 4.02 µM). In addition, the “MCC mammalian cells Vero E6 ATCC CRL1586” value in data set [2] was more than 100 µg/mL.
With `Cn1nnc2cccc(NC(=O)C(Cc3ccccc3)NC(=O)c3ccccc3F)c21` (stereo not drawn) [IX-300, 2-fluoro-N-(1-((1-methyl-1H-benzo[d][1,2,3]triazol-7-yl)amino)-1-oxo-3-phenylpropan-2-yl)benzamide], the MIC is 6.25 µg/mL (≈ 15 µM) in data set [1], 1.56 µg/mL (≈ 3.74 µM) in data set [3] and 6.25 µg/mL (≈ 15 µM) in data set [4].
Regarding `Cc1ccccc1C(=O)NC(Cc1ccccc1)C(=O)Nc1cccc2nnn(C)c12` (stereo not drawn) [IX-301, 2-methyl-N-(1-((1-methyl-1H-benzo[d][1,2,3]triazol-7-yl)amino)-1-oxo-3-phenylpropan-2-yl)benzamide], the MIC turned out to be 6.25 µg/mL (≈ 15.1 µM) in data set [1], 0.39 µg/mL (≈ 0.943 µM) in data set [3] and 3.13 µg/mL (≈ 7.57 µM) in data set [4].
On to `CC1CN(c2ccc(F)cc2NC(=O)C(Cc2ccccc2)NC(=O)c2ccccc2F)CCN1` (stereo not drawn) [IX-305, 2-fluoro-N-(1-((5-fluoro-2-(3-methylpiperazin-1-yl)phenyl)amino)-1-oxo-3-phenylpropan-2-yl)benzamide], for which the minimal inhibitory concentration (MIC) in data set [1] is 1.56 µg/mL (≈ 3.26 µM); in data set [3], 0.78 µg/mL (≈ 1.63 µM); in data set [4], 12.5 µg/mL (≈ 26.1 µM).
Turning to `O=C(NC(Cc1ccccc1)C(=O)Nc1cc(F)ccc1N1CC2CCCNC2C1)c1ccccc1F` (stereo not drawn) [IX-307, 2-fluoro-N-(1-((5-fluoro-2-(octahydro-6H-pyrrolo[3,4-b]pyridin-6-yl)-phenyl)amino)-1-oxo-3-phenylpropan-2-yl)benzamide], the MIC was 12.5 µg/mL (≈ 24.8 µM) in data set [1], 6.12 µg/mL (≈ 12.1 µM) in data set [3] and 25 µg/mL (≈ 49.5 µM) in data set [4].
`CC1CN(c2ccc(F)cc2NC(=O)C(Cc2ccccc2)NC(=O)c2ccccc2F)CC(C)N1` (stereo not drawn) [IX-308, N-(1-((2-(3,5-dimethylpiperazin-1-yl)-5-fluorophenyl)amino)-1-oxo-3-phenylpropan-2-yl)-2-fluorobenzamide]: the minimum inhibitory concentration (MIC) in data set [1] was 3.13 µg/mL (≈ 6.35 µM); in data set [3], 0.39 µg/mL (≈ 0.792 µM); in data set [4] it was less than 0.39 µg/mL.
